Measurements as given in US20030165837A1, “Method for screening DNA binding” (The Scripps Research Institute, priority 2000, published 2003).

Tests used:
[1] = system: GC-rich regions; conditions: fold weaker; cited from earlier work
[2] = system: library of 512 hairpin deoxyoligonucleotides containing all possible five bp sequences; experiment: Fluorescent intercalator displacement (ethidium bromide) assay, 96-well, 512-member hairpin library; format: binding; conditions: for 3 or 2 bp AT sites, statistical site frequency in the top 50 sequences: FIG. 24; for five bp AT sites found in the top 50 sequences: share of the 16 five bp AT sites; for four bp AT sites found in the top 50 sequences: share of the 32 four bp AT sites; for three bp AT sites found in the top 50 sequences: share of the 80 three bp AT sites
Experimental: Ethidium Bromide Assay. […] Prior to use, each deoxyoligonucleotide was diluted to […] in water and stored at 0° C. for no longer than two days. Each well of a Costar black 96-well plate was loaded with Tris buffer containing ethidium bromide (88 μL of a 0.68×10^−5 solution in buffer (0.1 M Tris, 0.1 M NaCl, pH 8), 0.60×10^−5 M ethidium bromide final concentration). To each well was added one hairpin deoxyoligonucleotide (10 μL, 1.2×10^−5 M in DNA bp final concentration) followed by agent (2 μL of a 0.1 mM solution in water, 2.0×10^−6 M final concentration). […] Fluorescence readings are reported as % fluorescence relative to the control wells. Fluorescence plate readers show a variability of ±10%, but surface effects (i.e bubbles, dust) may contribute to larger variations requiring a second set of measurements.
All other experiments described herein (i.e. compound concentration, overall assay concentration, ethidium bromide:DNA ratio, time variability, etc.) utilized this general procedure in a 96-well plate format.

[3] = system: hairpin deoxyoligonucleotides (AATTT, AAAAA, AATAA, ATTAA); experiment: Ethidium bromide displacement quantitative titration, Scatchard analysis; format: binding; conditions: for binding constant for the hairpin containing AAAAA: ethidium bromide displacement titration
Experimental: Determination of Binding Constants. Ethidium Bromide/Thiazole Orange Displacement. A 3 mL quartz cuvette was loaded with Tris buffer (0.1 M Tris, 0.1 M, NaCl, pH 8) and ethidium bromide orthiazole orange (0.44×10^−5 M final concentration). […] The hairpin deoxyoligonucleotide of interest was added (1.1 μM, 8.8 μM in bp final concentration), the fluorescence was measured again and normalized to 100% relative fluorescence. A solution of compound (2 μL, 0.1 mM in DMSO) was added and the fluorescence was measured following 5 min of incubation at 23° C. The addition of 2 μL aliquots was continued until the system reached saturation and the fluorescence remained constant with subsequent compound additions.
(§1) Scatchard Analysis of the Titration Curve. The AF was plotted versus molar equivalents of agent and the ΔFsat was determined mathematically by solving the simultaneous equations representing the pre and post saturation regions of the titration curve. Utilizing equations (1)-(3) (FIG. 11), a Scatchard plot was generated where ΔF/[Free Agent] was plotted versus ΔF. The slope of the region immediately preceding complete saturation of the system provided −K.

[4] = system: 136-membered hairpin library containing all possible four bp sites; experiment: Thiazole orange displacement 96-well assay, 136-membered hairpin library; format: binding; conditions: 136 hairpins
Experimental: A preliminary examination of thiazole orange was conducted to assess the optimal assay concentration range, and to establish its affinity and stoichiometry of binding with representative hairpins (FIG. 10). Thiazole was utilized in both the 96-well format assay and in quantitative titrations for determining binding constants (FIGS. 27 and 28). […] A representative example of the use of thiazole orange in the 96-well format assay is illustrated in FIG. 28 with the assay of netropsin against a 136-membered hairpin library containing all possible four bp sites. […] The mean rank of the ten available 4 bp AT sites was 7.3, whereas the mean positions for the 3 and 2 bp sites were 41.6 and 67.7, respectively. Moreover, the rank order binding across the full ensemble of 4 bp AT sites is consistent with that established in footprinting studies (Portugal, J.; Waring, M. J. Eur. J. Biochem. 1987, 167, 281; Portugal, J.; Waring, M. J. FEBS Lett. 1987, 225, 195; Abu-Daya, A.; et al. Nucleic Acids Res. 1995, 23, 3385; Abu-Daya, A.; Fox, K. R. Nucleic Acids Res. 1997, 25, 4962; Harshman, K. D.; Dervan, P. B. Nucleic Acids Res. 1985, 13, 4825; Van Dyke, M. W.; et al. Proc. Natl. Acad. Sci. USA 1982, 79, 5470; Ward, B.; et al. Biochemistry 1988, 27, 1198; Fish, E. L.; et al. Biochemistry 1988, 27, 6026; Kittler, L.; et al. J. Mol. Recognit. 1999, 12, 121).

[5] = system: polynucleotides; experiment: Binding constants of ethidium bromide and thiazole orange to polynucleotides (FIG. 10, first table)
From the text: FIG. 10 is a table showing the binding constants of ethidium bromide and thiazole orange. […] The variation in the DNA used in the first table is much greater than that used in the second table which explains the greater variation in the ethidium bromide constants.

[6] = system: hairpin deoxyoligonucleotide; experiment: Direct fluorescence titration of DAPI, Hoechst 33258, ethidium bromide or thiazole orange; format: binding; conditions: FIG. 10, second table
Experimental: Direct Fluorescence Titration of DAPI, Hoechst 33258, Ethidium Bromide or Thiazole Orange. A 3 mL quartz cuvette was loaded with Tris buffer (0.1 M Tris, 0.1 M, NaCl, pH 8) and hairpin deoxyoligonucleotide (1.1 μM, 8.8 μM in bp final concentration). A solution of DAPI (excitation 372 nm; emission 454 nm; 2 μL, 0.1 mM in DMSO), Hoechst 33258 (excitation 358 nm; emission 454 nm; 2 μL, 0.1 mM in DMSO), ethidium bromide (excitation 545 nm; emission 595 nm; 2 μL, 0.5 mM in H2O) or thiazole orange (excitation 509 nm; emission 527 nm; 2 μL, 0.5 mM in DMSO) was added and the fluorescence was measured following 5 min of incubation at 23° C. The addition of 2 μL aliquots was continued until the system reached saturation and the fluorescence remained constant with subsequent additions.
as §1

SMILES: Cl.Cl.N=C(N)c1ccc(-c2cc3ccc(C(=N)N)cc3[nH]2)cc1 [DAPI, 4′,6-Diamidine-2-phenylindole.2HCl]
- binding to GC-rich regions by intercalation relative to AT-rich minor groove binding [1]: 100-1000 fold
- sites containing a GC bp central to a five bp AT-rich site in the top 50 sequences ([2]; 512 hairpins): none
- 3 or 2 bp AT sites, statistical site frequency in the top 50 sequences ([2]; 512 hairpins): 14%
- % fluorescence decrease ([2]; non AT-rich hairpins (>150-512), 2 μM): < 20%
- five bp AT sites found in the top 50 sequences ([2]; 512 hairpins): 100%
- four bp AT sites found in the top 50 sequences ([2]; 512 hairpins): 72%
- three bp AT sites found in the top 50 sequences ([2]; 512 hairpins): 14%
- binding constant for the hairpin containing AAAAA ([3]; hairpin containing 5′-AAAAA): 5e+07 M⁻¹

SMILES: CN1CCN(c2ccc3[nH]c(-c4ccc5[nH]c(-c6ccc(O)cc6)nc5c4)nc3c2)CC1 [Hoechst 33258]
- GAAT among the top 50 sequences ([2]; 5 sequences): 10%
- GATT among the top 50 sequences ([2]; 7 sequences): 14%
- top 50 sequences that contain a three bp AT site flanked by a GC bp ([2]; 15 in the top 50): 30%
- sequences 21-50 (next 30 after the top 20) that contain a three bp AT site flanked by a GC bp ([2]; 15 of the next 30 sequences): 50%
- sites containing a GC bp central to a five bp AT-rich site in the top 50 sequences ([2]; 512 hairpins): no site containing a GC bp central to a 5 bp AT-rich site is found in the top 50 sequences
- 3 or 2 bp AT sites, statistical site frequency in the top 50 sequences ([2]; 512 hairpins): 19%
- fluorescent decrease ([2]; hairpins >100-150): < 20%
- five bp AT sites found in the top 50 sequences ([2]; 512 hairpins): 100%
- four bp AT sites found in the top 50 sequences ([2]; 512 hairpins): 59%
- binding constants by ethidium bromide displacement relative to direct titration ([3]; fold weaker than direct titration, four hairpins): ~2 fold
- binding constant for the hairpin containing AAAAA ([3]; hairpin containing 5′-AAAAA): 7.2e+07 M⁻¹

SMILES: CC(=O)NCC(=O)O.CC(=O)NCC(=O)O.N=C(N)c1ccc(N=NNc2ccc(C(=N)N)cc2)cc1 [berenil]
- 3 or 2 bp AT sites, statistical site frequency in the top 50 sequences ([2]; 512 hairpins): 15%
- five bp AT sites found in the top 50 sequences ([2]; 512 hairpins): 100%
- four bp AT sites found in the top 50 sequences ([2]; 512 hairpins): 66%
- three bp AT sites found in the top 50 sequences ([2]; 512 hairpins): 15%
- binding constant for the hairpin containing AAAAA ([3]; hairpin containing 5′-AAAAA): 6.4e+06 M⁻¹

SMILES: Cn1cc(NC(=O)c2cc(NC(=O)c3cc(NC=O)cn3C)cn2C)cc1C(=O)NCCC(=N)N [distamycin A]
- 3 or 2 bp AT sites, statistical site frequency in the top 50 sequences ([2]; 512 hairpins): 27%
- five bp AT sites found in the top 50 sequences ([2]; 512 hairpins): 88%
- hairpin sites with a GC bp central to a five bp AT-rich site found in the top 50 sequences ([2]; share of the 16 such hairpin sites): 44%
- four bp AT sites found in the top 50 sequences ([2]; 512 hairpins): 47%
- three bp AT sites found in the top 50 sequences ([2]; 512 hairpins): 13%
- two bp AT sites found in the top 50 sequences ([2]; share of the 176 two bp AT sites, 512 hairpins): 6%
- top 50 sequences that contain a GC bp central to a five bp AT-rich site ([2]; share of the top 50 sequences): 14%
- binding constant for the hairpin containing AAAAA ([3]; hairpin containing 5′-AAAAA): 1.7e+07 M⁻¹

SMILES: Cn1cc(NC(=O)c2cc(NC(=O)CN=C(N)N)cn2C)cc1C(=O)NCCC(=N)N [netropsin]
- mean position of the 2 bp AT sites [4]: 67.7
- mean position of the 3 bp AT sites [4]: 41.6
- mean rank of the ten available 4 bp AT sites [4]: 7.3
- rank (sequence no.) of ATTTA ([2]; 1.0 μM netropsin): 3
- rank (sequence no.) of ATTTA ([2]; 2.0 μM netropsin): 1
- sites containing a GC bp central to a five bp AT-rich site in the top 50 sequences ([2]; 512 hairpins): no AT-rich sequence interrupted by a central GC bp appears in the top 50 sequences
- 3 or 2 bp AT sites, statistical site frequency in the top 50 sequences ([2]; 512 hairpins): 9%
- five bp AT sites found in the top 50 sequences ([2]; 512 hairpins): 100%
- four bp AT sites found in the top 50 sequences ([2]; 512 hairpins): 84%
- three bp AT sites found in the top 50 sequences ([2]; 512 hairpins): 9%
- ethidium bromide displaced at saturation binding ([3]; hairpin containing 5′-AAAAA): essentially all the ethidium bromide
- binding constant for the hairpin containing AAAAA ([3]; hairpin containing 5′-AAAAA): 3.47e+08 M⁻¹

SMILES: CN1C(=Cc2cc[n+](C)c3ccccc23)Sc2ccccc21 [thiazole orange]
- difference in binding constant between polynucleotides [5]: no difference
- difference in binding constants between hairpins [6]: 1.3 fold
